Laboratory results as given in ChEMBL document CHEMBL5505981, “Design, synthesis and biological evaluation of novel 1,2,4a,5-tetrahydro-4H-benzo[b][1,4]oxazino[4,3-d][1,4]oxazine-based AAK1 inhibitors with anti-viral property against SARS-CoV-2” (Eur J Med Chem, 2024).

Tests used:
[1] = tested on: Dengue virus; assay: Antiviral activity against DENV infected in human Huh-7 cells; type: functional, organism-based
[2] = target: T1, AP2-associated protein kinase 1 (Homo sapiens, UniProt Q2M2I8); type: cell-based
[3] = tested on: HEK293; type: toxicity, cell-based; details: human, hek293, 48 h, 6 µM
[4] = tested on: HEK293; type: toxicity, cell-based; details: human, hek293, 48 h, 30 µM
[5] = Cytotoxicity against human Huh-7 cells; type: toxicity, cell-based
[6] = tested on: Ebolavirus; assay: Antiviral activity against EBOV; type: functional, organism-based; details: Orthoebolavirus
[7] = target: T1, AP2-associated protein kinase 1; assay: Inhibition of AAK1 (unknown origin)
[8] = tested on: HEK293; type: toxicity, cell-based; details: human, hek293, 48 h, 20 µM
[9] = Cytotoxicity against human Huh7.5 cells; type: toxicity, cell-based, Huh-7.5

T1 sequence (Q2M2I8 whole entry): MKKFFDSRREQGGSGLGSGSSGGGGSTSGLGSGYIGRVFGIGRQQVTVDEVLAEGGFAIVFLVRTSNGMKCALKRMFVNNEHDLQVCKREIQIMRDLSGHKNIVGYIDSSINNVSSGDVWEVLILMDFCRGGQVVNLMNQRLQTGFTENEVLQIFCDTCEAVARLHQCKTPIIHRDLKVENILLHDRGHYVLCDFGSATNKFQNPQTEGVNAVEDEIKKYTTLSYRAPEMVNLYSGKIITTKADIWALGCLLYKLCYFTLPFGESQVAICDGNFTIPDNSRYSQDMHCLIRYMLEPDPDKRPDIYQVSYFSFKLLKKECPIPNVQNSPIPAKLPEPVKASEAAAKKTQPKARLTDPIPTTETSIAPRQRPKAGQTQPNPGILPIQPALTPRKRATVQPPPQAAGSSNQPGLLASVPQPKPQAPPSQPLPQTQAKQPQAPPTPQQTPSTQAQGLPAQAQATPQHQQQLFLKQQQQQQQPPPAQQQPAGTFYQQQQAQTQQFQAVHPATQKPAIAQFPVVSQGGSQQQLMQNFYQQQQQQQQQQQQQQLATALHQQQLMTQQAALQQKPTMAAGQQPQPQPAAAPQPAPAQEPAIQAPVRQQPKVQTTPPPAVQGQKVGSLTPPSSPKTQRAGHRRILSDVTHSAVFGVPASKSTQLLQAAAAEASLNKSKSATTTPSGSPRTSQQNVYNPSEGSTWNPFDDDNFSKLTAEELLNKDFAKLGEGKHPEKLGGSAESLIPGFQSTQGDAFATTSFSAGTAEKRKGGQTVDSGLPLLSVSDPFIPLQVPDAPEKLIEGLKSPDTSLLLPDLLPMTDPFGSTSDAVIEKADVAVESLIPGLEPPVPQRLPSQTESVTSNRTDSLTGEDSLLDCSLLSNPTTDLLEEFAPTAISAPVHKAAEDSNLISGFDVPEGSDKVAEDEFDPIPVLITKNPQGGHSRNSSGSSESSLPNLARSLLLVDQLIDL

Compound: COc1ccc(-c2cnc3[nH]cc(C#Cc4cccnc4)c3c2)cc1OC
- EC50 [1]: 720 nM
- IC50 [2]: 7.57 nM
- Activity [3]: Toxic

Compound: CCN(CC)S(=O)(=O)Nc1cccc(-c2ccc3c(NC(=O)C4CC4)n[nH]c3c2)c1
- Activity [4]: Non-Toxic

Compound: N#Cc1ccc(-c2cnc3[nH]cc(NC(=O)c4cccnc4)c3c2)cc1
- EC50 [1]: 8000 nM
- CC50 [5]: > 50000 nM
- EC50 [6]: > 10000 nM

Compound: C(#Cc1c[nH]c2ncc(-c3ccc4c(c3)OCC3COCCN43)cc12)c1ccccc1 (stereo not given)
- IC50 [2]: > 500 nM

Compound: C(#Cc1c[nH]c2ncc(-c3ccc4c(c3)OCC3COCCN43)cc12)c1cccnc1 (stereo not given)
- Activity [3]: Toxic

Compound: NCCCC#Cc1c[nH]c2ncc(-c3ccc4c(c3)OCC3COCCN43)cc12 (stereo not given)
- IC50 [2]: > 500 nM

Compound: CC(C)C[C@](C)(N)COc1ccc(-c2ccnc(C(F)F)c2)nc1C(F)F [PILAVAPADIN]
- Activity [4]: Non-Toxic
- IC50 [7]: 1.2 nM

Compound: CCN(CC)CCNC(=O)c1c(C)[nH]c(/C=C2\C(=O)Nc3ccc(F)cc32)c1C [SUNITINIB]
- Activity [8]: Non-Toxic
- CC50 [5]: 11500 nM
- CC50 [9]: > 10000 nM
